Experimental data taken from ChEMBL document CHEMBL4814068, “Synthesis and structure-activity relationships of new chiral spiro-β-lactams highly active against HIV-1 and Plasmodium” (Eur J Med Chem, 2021).

Tests used:
[1] = Cytotoxicity against human TZM-bl cells assessed as reduction in cell viability by AlamarBlue assay; type: cell-based
[2] = tested on: Human immunodeficiency virus 1; experiment: Antiviral activity against HIV1 SG3.1 infected in human TZM-bl cells assessed as inhibition of viral replication at 10 ug/ml measured after 48 hrs by single round viral infectivity assay based Steady-Glo luciferase assay; type: functional; settings: Human immunodeficiency virus 1, SG3.1, TZM-bl
[3] = tested on: Human immunodeficiency virus 1; experiment: Antiviral activity against HIV1 SG3.1 infected in human TZM-bl cells measured after 48 hrs by single round viral infectivity assay based Steady-Glo luciferase assay; type: functional, organism-based; settings: Human immunodeficiency virus 1, SG3.1, TZM-bl; for IC50: 48 h; for IC90: time 48 hrs
Plasmodium berghei = experiment: Antiplasmodial activity against hepatic stage of Plasmodium berghei infected in human Huh7 cells assessed as reduction in parasite growth treated 1 hr prior to infection and measured after 48 hrs by firefly luciferase based bioluminescence assay; type: functional, organism-based; settings: Huh-7
Plasmodium falciparum = experiment: Antiplasmodial activity against blood stage of Plasmodium falciparum NF54 assessed as inhibition of parasite growth measured after […] by SYBR green 1 dye based flow cytometry; type: functional, organism-based
Huh-7 = experiment: Cytotoxicity against human Huh-7 cells assessed as reduction in cell viability by AlamarBlue assay; type: cell-based
[4] = tested on: Human immunodeficiency virus 2; experiment: Antiviral activity against HIV2 03PTHCC19 infected in human TZM-bl cells measured after 48 hrs by single round viral infectivity assay based Steady-Glo luciferase assay; type: functional, organism-based; settings: Human immunodeficiency virus 2, 03PTHCC19, TZM-bl

SMILES | CC50 [1] | inhibition at 10 µg/mL [2] | other results
CC1(C)S[C@H]2N(C(=O)C23C=C(C(=O)OC(c2ccccc2)c2ccccc2)N=N3)[C@H]1C(=O)OC(c1ccccc1)c1ccccc1 (some centres undefined) | 54.4 µM | 0% | –
CC1(C)S[C@H]2N(C(=O)C23C[C@@H]2CN=N[C@]2(C(=O)OCc2ccccc2)C3C(=O)c2ccccc2)[C@H]1C(=O)OC(c1ccccc1)c1ccccc1 (some centres undefined) | 41.8 µM | 0% | –
COC(=O)C1CC2(N=N1)C(=O)N1[C@@H](C(=O)OC(c3ccccc3)c3ccccc3)C(C)(C)S[C@@H]12 (some centres undefined) | – | – | IC50 [3]: 0.012 µM; IC50 (Plasmodium berghei): < 10 µM
COC(=O)C1=CCC2(C(=O)N3[C@@H](C(=O)OC(c4ccccc4)c4ccccc4)C(C)(C)S[C@@H]32)C1C(=O)c1ccccc1 (some centres undefined) | 53.2 µM | 99% | IC50 [3]: 0.058 µM; IC90 [3]: 0.233 µM; IC50 (Plasmodium berghei): 2.29 µM; IC50 (Plasmodium falciparum): 1.26 µM; Activity (Huh-7): Non-Toxic
CC(C)(C)OC(=O)C1=CC2(N=N1)C(=O)N1[C@@H](C(=O)OC(c3ccccc3)c3ccccc3)C(C)(C)S[C@@H]12 (some centres undefined) | 55.1 µM | 0% | –
CC(=O)C1C(C(=O)OCc2ccccc2)=CCC12C(=O)N1[C@@H](C(=O)OC(c3ccccc3)c3ccccc3)C(C)(C)S[C@@H]12 (some centres undefined) | – | – | IC50 [3]: 0.65 µM; IC50 (Plasmodium berghei): < 5 µM; IC50 [4]: 0.51 µM
CC(C)(C)OC(=O)C1=CC2(N=N1)C(=O)N1[C@@H](C(=O)O)C(C)(C)S[C@@H]12 (some centres undefined) | 79 µM | 0% | –
CC(C)(C)OC(=O)C1=CCC(C(=O)c2ccccc2)C12C(=O)N1[C@@H](C(=O)OC(c3ccccc3)c3ccccc3)C(C)(C)S[C@@H]12 (some centres undefined) | 43.2 µM | 0% | –
COC(=O)C1=CC2(N=N1)C(=O)N1[C@@H](C(=O)NO)C(C)(C)S[C@@H]12 (some centres undefined) | 76.8 µM | 0% | –
CC1(C)S[C@H]2N(C(=O)C23CC=C(C(=O)OCc2ccccc2)C3C(=O)c2ccccc2)[C@H]1C(=O)OC(c1ccccc1)c1ccccc1 (some centres undefined) | – | – | IC50 [3]: 0.014 µM; IC50 (Plasmodium berghei): 0.55 µM; IC50 (Plasmodium falciparum): 0.43 µM; IC50 [4]: 0.008 µM
CC1(C)S[C@H]2N(C(=O)C23C=C(C(=O)Oc2ccc4ccccc4c2)N=N3)[C@H]1C(=O)O (some centres undefined) | 68.6 µM | 0% | –
CC1(C)S[C@H]2N(C(=O)C23CC=C(C(=O)OCc2ccccc2)C3C(=O)OCc2ccccc2)[C@H]1C(=O)OC(c1ccccc1)c1ccccc1 (some centres undefined) | 43.2 µM | 0% | –
CC1(C)S[C@H]2N(C(=O)C23C=C(C(=O)Oc2ccc4ccccc4c2)N=N3)[C@H]1C(=O)OC(c1ccccc1)c1ccccc1 (some centres undefined) | 49.1 µM | 0% | –
CCOC(=O)C1=CCC2(C(=O)N3[C@@H](C(=O)OC(c4ccccc4)c4ccccc4)C(C)(C)S[C@@H]32)C1C(=O)c1ccccc1 (some centres undefined) | 59 µM | 99% | IC50 [3]: 0.305 µM; IC90 [3]: 0.479 µM; IC50 (Plasmodium berghei): 1.92 µM; IC50 (Plasmodium falciparum): 0.844 µM; Activity (Huh-7): Non-Toxic
CC(C)(C)OC(=O)C1=CCC2(C(=O)N3[C@@H](C(=O)OC(c4ccccc4)c4ccccc4)C(C)(C)S[C@@H]32)C1C(=O)c1ccccc1 (some centres undefined) | 44.4 µM | 0% | –
CC1(C)S[C@H]2N(C(=O)C23N=NC(C(=O)OC(c2ccccc2)c2ccccc2)=C3C(=O)OC(c2ccccc2)c2ccccc2)[C@H]1C(=O)OC(c1ccccc1)c1ccccc1 (some centres undefined) | 33.5 µM | 0% | –
CCOC(=O)C1=CC2(N=N1)C(=O)N1[C@@H](C(=O)O)C(C)(C)S[C@@H]12 (some centres undefined) | 83.8 µM | 0% | –
CCOC(=O)C1=CCC(C(=O)c2ccccc2)C12C(=O)N1[C@@H](C(=O)OC(c3ccccc3)c3ccccc3)C(C)(C)S[C@@H]12 (some centres undefined) | 57.1 µM | 0% | –
COC(=O)C1=CCC(C(=O)c2ccccc2)C12C(=O)N1[C@@H](C(=O)OC(c3ccccc3)c3ccccc3)C(C)(C)S[C@@H]12 (some centres undefined) | 54.9 µM | 0% | –
COC(=O)[C@@H]1N2C(=O)C3(C(C(=O)OCc4ccccc4)=CCC3C(=O)c3ccccc3)[C@H]2SC1(C)C (some centres undefined) | 55.4 µM | 0% | –
CC1(C)S[C@H]2N(C(=O)C23CC=C(C(=O)OCc2ccccc2)C3C(=O)c2ccccc2)[C@H]1C(=O)O (some centres undefined) | 60.3 µM | 0% | –
CC1(C)S[C@H]2N(C(=O)C23C(C(=O)OCc2ccccc2)=CCC3C(=O)c2ccccc2)[C@H]1C(=O)O (some centres undefined) | 56.6 µM | 0% | –
CC1(C)S[C@H]2N(C(=O)C23C=C(C(=O)O)N=N3)[C@H]1C(=O)O (some centres undefined) | 101 µM | 0% | –
COC(=O)C1=CC2(N=N1)C(=O)N1[C@@H](C(=O)OC)C(C)(C)S[C@@H]12 (some centres undefined) | 89.8 µM | 0% | –
CCOC(=O)C1=CC2(N=N1)C(=O)N1[C@@H](C(=O)OC(c3ccccc3)c3ccccc3)C(C)(C)S[C@@H]12 (some centres undefined) | 46.9 µM | 0% | –
CC1(C)S[C@H]2N(C(=O)C23NN=C(C(=O)OCc2ccccc2)C3C(=O)c2ccccc2)[C@H]1C(=O)OC(c1ccccc1)c1ccccc1 (some centres undefined) | 17.2 µM | – | –
